Measurements reported in ChEMBL document CHEMBL5625200 (Eur J Med Chem, 2023).
The source made the active and inactive calls. No cut-off for these calls is given here.

What was measured:
Rattus norvegicus [1] = experiment: Antihypertensive activity against MCT-induced Wistar albino rat PAH model assessed as decreased right ventricular hypertrophy at 300 mg/kg, sc administered for 21 days (reference value: 0.42 +/- 0.020 […]); assay type: functional; conditions: time 21 day
Rattus norvegicus [2] = experiment: Antihypertensive activity against MCT-induced Wistar albino rat PAH model assessed as decreased right ventricular hypertrophy at 150 mg/kg, sc administered for 21 days (reference value: 0.42 +/- 0.020 […]); assay type: functional; conditions: time 21 day
Rattus norvegicus [3] = experiment: Antihypertensive activity against MCT-induced Wistar albino rat PAH model assessed as decreased mean pulmonary arterial pressure at 300 mg/kg, sc administered for 21 days (reference value: 19.18 +/- 0.360 mmHg); assay type: functional; conditions: time 21 day
Rattus norvegicus [4] = experiment: Antihypertensive activity against MCT-induced Wistar albino rat PAH model assessed as decreased mean pulmonary arterial pressure at 150 mg/kg, sc administered for 21 days (reference value: 19.18 +/- 0.360 mmHg); assay type: functional; conditions: time 21 day
Rattus norvegicus [5] = experiment: Antihypertensive activity against MCT-induced Wistar albino rat PAH model assessed as decreased right ventricular systolic pressure at 300 mg/kg, sc administered for 21 days (reference value: 55.19 +/- 0.026 mmHg); assay type: functional; conditions: time 21 day
Rattus norvegicus [6] = experiment: Antihypertensive activity against MCT-induced Wistar albino rat PAH model assessed as decreased right ventricular systolic pressure at 150 mg/kg, sc administered for 21 days (reference value: 55.19 +/- 0.026 mmHg); assay type: functional; conditions: time 21 day
Endothelin-1 receptor = target: T1, Endothelin-1 receptor (Homo sapiens, UniProt P25101); experiment: Antagonist activity against human ET-1 by ELISA analysis; assay type: functional
T1 sequence (P25101 whole entry): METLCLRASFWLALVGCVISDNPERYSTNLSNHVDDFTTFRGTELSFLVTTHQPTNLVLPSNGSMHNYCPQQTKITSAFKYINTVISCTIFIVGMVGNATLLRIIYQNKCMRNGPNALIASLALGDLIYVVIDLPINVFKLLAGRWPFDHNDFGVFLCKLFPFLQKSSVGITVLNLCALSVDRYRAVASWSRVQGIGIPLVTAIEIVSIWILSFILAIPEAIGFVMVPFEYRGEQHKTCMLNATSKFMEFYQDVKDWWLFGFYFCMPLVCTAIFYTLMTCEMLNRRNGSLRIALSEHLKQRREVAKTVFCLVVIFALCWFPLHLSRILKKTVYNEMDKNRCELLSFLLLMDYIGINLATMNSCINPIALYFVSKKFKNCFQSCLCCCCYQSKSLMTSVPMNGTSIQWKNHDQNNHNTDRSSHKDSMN

Rattus norvegicus [7] = experiment: Antihypertensive activity against MCT-induced Wistar albino rat PAH model assessed as reduction in peribronchial and interstitial inflammatory infiltrates and inter-alveolar vascular spaces at 150 to 300 mg/kg, sc by hematoxylin and eosin staining based microscopic analysis; assay type: functional, organism-based; conditions: dose 150-300 mg/kg
Rattus norvegicus [8] = experiment: Antihypertensive activity against MCT-induced Wistar albino rat assessed as reduction in HIF1alpha level at 150 mg/kg, sc by ELISA analysis (reference value: 312.00 +/- 1.36 ng/ml); assay type: functional
Rattus norvegicus [9] = experiment: Antihypertensive activity against MCT-induced Wistar albino rat assessed as reduction in HIF1alpha level at 300 mg/kg, sc by ELISA analysis (reference value: 312.00 +/- 1.36 ng/ml); assay type: functional
Rattus norvegicus [10] = experiment: Antihypertensive activity against MCT-induced Wistar albino rat assessed as reduction in ANP level at 150 mg/kg, sc by ELISA analysis (reference value: 358.00 +/- 1.24 pg/ml); assay type: functional
Rattus norvegicus [11] = experiment: Antihypertensive activity against MCT-induced Wistar albino rat assessed as reduction in ANP level at 300 mg/kg, sc by ELISA analysis (reference value: 358.00 +/- 1.24 pg/ml); assay type: functional
Rattus norvegicus [12] = experiment: Antihypertensive activity against MCT-induced Wistar albino rat assessed as reduction in TNNI3 level at 150 mg/kg, sc by ELISA analysis (reference value: 3.42 +/- 0.12 pg/ml); assay type: functional
Rattus norvegicus [13] = experiment: Antihypertensive activity against MCT-induced Wistar albino rat assessed as reduction in TNNI3 level at 300 mg/kg, sc by ELISA analysis (reference value: 3.42 +/- 0.12 pg/ml); assay type: functional
Rattus norvegicus [14] = experiment: Antioxidant activity against MCT-induced Wistar albino rat assessed as increase in SOD level at 150 mg/kg, sc by biochemical analysis (reference value: 19.15 +/- 0.21 U/mg); assay type: functional
Rattus norvegicus [15] = experiment: Antioxidant activity against MCT-induced Wistar albino rat assessed as increase in SOD level at 300 mg/kg, sc by biochemical analysis (reference value: 19.15 +/- 0.21 U/mg); assay type: functional
Rattus norvegicus [16] = experiment: Antioxidant activity against MCT-induced Wistar albino rat assessed as increase in catalase level at 150 mg/kg, sc by biochemical analysis (reference value: 0.26 +/- 0.05 U/mg); assay type: functional
Rattus norvegicus [17] = experiment: Antioxidant activity against MCT-induced Wistar albino rat assessed as increase in catalase level at 300 mg/kg, sc by biochemical analysis (reference value: 0.26 +/- 0.05 U/mg); assay type: functional
Rattus norvegicus [18] = experiment: Antioxidant activity against MCT-induced Wistar albino rat assessed as increase in GSH level at 150 mg/kg, sc by biochemical analysis (reference value: 12.21 +/- 0.34 U/mg); assay type: functional
Rattus norvegicus [19] = experiment: Antioxidant activity against MCT-induced Wistar albino rat assessed as increase in GSH level at 300 mg/kg, sc by biochemical analysis (reference value: 12.21 +/- 0.34 U/mg); assay type: functional
Rattus norvegicus [20] = experiment: Antioxidant activity against MCT-induced Wistar albino rat assessed as reduction in TBARS level at 150 mg/kg, sc by biochemical analysis (reference value: 123.03 +/- 0.47 micromol); assay type: functional
Rattus norvegicus [21] = experiment: Antioxidant activity against MCT-induced Wistar albino rat assessed as reduction in TBARS level at 300 mg/kg, sc by biochemical analysis (reference value: 123.03 +/- 0.47 micromol); assay type: functional
Rattus norvegicus [22] = experiment: Antihypertensive activity against MCT-induced Wistar albino rat assessed as decrease in COX-2 expression by measuring fold change at 300 mg/kg, sc by quantitative RT-PCR analysis (reference value: 32.22); assay type: functional
Rattus norvegicus [23] = experiment: Antihypertensive activity against MCT-induced Wistar albino rat assessed as decrease in ET-alpha expression by measuring fold change at 300 mg/kg, sc by quantitative RT-PCR analysis (reference value: 32.14); assay type: functional
Rattus norvegicus [24] = experiment: Antihypertensive activity against MCT-induced Wistar albino rat assessed as decrease in ET-beta expression by measuring fold change at 300 mg/kg, sc by quantitative RT-PCR analysis (reference value: 15.17); assay type: functional
Rattus norvegicus [25] = experiment: Antihypertensive activity against MCT-induced Wistar albino rat assessed as decrease in mPGES-1 expression by measuring fold change at 300 mg/kg, sc by quantitative RT-PCR analysis (reference value: 10.99); assay type: functional
Rattus norvegicus [26] = experiment: Antihypertensive activity against MCT-induced Wistar albino rat assessed as increase in eNOS expression by measuring fold change at 300 mg/kg, sc by quantitative RT-PCR analysis (reference value: 0.002); assay type: functional
Rattus norvegicus [27] = experiment: Antihypertensive activity against MCT-induced Wistar albino rat assessed as increase in SGC expression by measuring fold change at 300 mg/kg, sc by quantitative RT-PCR analysis (reference value: 0.01); assay type: functional
Rattus norvegicus [28] = experiment: Antihypertensive activity against MCT-induced Wistar albino rat assessed as decrease in lung COX-2 expression at 300 mg/kg, sc by Western blotting analysis; assay type: functional, organism-based
Rattus norvegicus [29] = experiment: Antihypertensive activity against MCT-induced Wistar albino rat assessed as decrease in lung mPGES-1 expression at 300 mg/kg, sc by Western blotting analysis; assay type: functional, organism-based
Rattus norvegicus [30] = experiment: Antihypertensive activity against MCT-induced Wistar albino rat assessed as increase in lung SGC expression at 300 mg/kg, sc by Western blotting analysis; assay type: functional, organism-based
Rattus norvegicus [31] = experiment: Antihypertensive activity against MCT-induced Wistar albino rat assessed as increase in lung eNOS expression at 300 mg/kg, sc by Western blotting analysis; assay type: functional, organism-based

COc1ccccc1Oc1c(NS(=O)(=O)c2ccccc2)nc(-c2ncccn2)nc1OCC1CCCN1C (configuration not stated)
Activity (Rattus norvegicus [1]): 0.24
Activity (Rattus norvegicus [2]): 0.27
Activity (Rattus norvegicus [3]): 10.12 mmHg
Activity (Rattus norvegicus [4]): 13.11 mmHg
Activity (Rattus norvegicus [5]): 23.16 mmHg
Activity (Rattus norvegicus [6]): 29.08 mmHg
IC50 (Endothelin-1 receptor): 0.22 nM
Activity (Rattus norvegicus [7]): Active
Activity (Rattus norvegicus [8]): 158.12 ng/mL
Activity (Rattus norvegicus [9]): 132.21 ng/mL
Activity (Rattus norvegicus [10]): 252.13 pg/mL
Activity (Rattus norvegicus [11]): 238.08 pg/mL
Activity (Rattus norvegicus [12]): 2.32 pg/mL
Activity (Rattus norvegicus [13]): 2.1 pg/mL
Activity (Rattus norvegicus [14]): 31.12 U/mg
Activity (Rattus norvegicus [15]): 40.21 U/mg
Activity (Rattus norvegicus [16]): 0.81 U/mg
Activity (Rattus norvegicus [17]): 1.05 U/mg
Activity (Rattus norvegicus [18]): 17.27 U/mg
Activity (Rattus norvegicus [19]): 22.72 U/mg
Activity (Rattus norvegicus [20]): 88.12 µmol
Activity (Rattus norvegicus [21]): 73.12 µmol
fold change (FC) (Rattus norvegicus [22]): 2.91
fold change (FC) (Rattus norvegicus [23]): 1.38
fold change (FC) (Rattus norvegicus [24]): 1.04
fold change (FC) (Rattus norvegicus [25]): 1.07
fold change (FC) (Rattus norvegicus [26]): 0.37
fold change (FC) (Rattus norvegicus [27]): 0.18
Activity (Rattus norvegicus [28]): Active
Activity (Rattus norvegicus [29]): Active
Activity (Rattus norvegicus [30]): Active
Activity (Rattus norvegicus [31]): Active
